These results are taken from article PMC6066642 (2018).

Assay [1] deals with hTeloC (DNA, i motif) CCCTAACCCTAACCCTAACCCT
Kind of assay: CD melting. The settings on record: Na+ (10 mM sodium phosphate); pH 5.7; 5 equivalents of compound, 10-15 μM DNA.

Assay [2] has as its system mutTel24 (DNA, G4) TTGGGTTAGGGTTAGGGTTAGGGA
Description: CD melting. The settings on record: K+ (10 mM potassium phosphate); pH 5.7; 5 equivalents of compound, 10-15 μM DNA.

The test system of assay [3] is hTeloCFID (DNA, i motif) TAACCCTAACCCTAACCCTAACCC
Kind of assay: fluorescent intercalator displacement. The following applies: Na+ (10 mM NaH2PO4); pH 5.7; thiazole orange 2 μM displaced.

The test system of assay [4] is mutTel24FID (DNA, G4) TTTGGGTTAGGGTTAGGGTTAGGGA
Description: fluorescent intercalator displacement. The following applies: K+ (10 mM KH2PO4); pH 5.7; thiazole orange 2 μM displaced.

Regarding `NCCOc1cc(C(=O)Nc2cc(OCCN)c3ccccc3n2)nc(C(=O)Nc2cc(OCCN)c3ccccc3n2)c1`, the ΔT1/2 entry is “+0.8 ± 0.5 °C” in assay [1] and “+8.8 ± 0.5 °C” in assay [2]. The DC50 in assay [3] amounted to 18.02 ± 5.89E-02 μM; in assay [4], 9.42 ± 3.90E-02 μM.
For `O=C1c2c(O)ccc(O)c2C(=O)c2c(NCCNCCO)ccc(NCCNCCO)c21`, the ΔT1/2 in assay [1] was -9.9 ± 0.5 °C; in assay [2] it was “+4.5 ± 0.5 °C”. For the same molecule, the DC50 in assay [3] came to 1.34 ± 6.99E-03 μM; in assay [4], 0.95 ± 6.07E-03 μM.
The matching figures for `CN(C)c1ccc(Nc2c3ccc(NC(=O)CCN4CCCC4)cc3nc3cc(NC(=O)CCN4CCCC4)ccc23)cc1`: -9.2 ± 0.5 °C, “+8.9 ± 0.5 °C”, 0.87 ± 8.08E-04 μM and 0.50 ± 1.95E-03 μM.
On to `C[n+]1cc(NC(=O)c2ccc3ccc4ccc(C(=O)Nc5cc6ccccc6[n+](C)c5)nc4c3n2)cc2ccccc21`, for which the ΔT1/2 in assay [1] was -6.8 ± 0.5 °C; in assay [2] it was “+14.4 ± 0.5 °C”. Further, the DC50 was determined as 0.95 ± 3.79E-03 μM in assay [3] and 0.39 ± 1.42E-03 μM in assay [4].
For the molecule `Cc1cc2c3c([n+](C)c4ccc(F)cc4c3c1)-c1cc(F)ccc1N2C`, the ΔT1/2 is -0.3 ± 0.5 °C in assay [1] and “+20.6 ± 0.5 °C” in assay [2].
`COc1ccc2cc3[n+](cc2c1OC)CCc1cc2c(cc1-3)OCO2`: the ΔT1/2 in assay [1] was -0.8 ± 0.5 °C; in assay [2], “+12.4 ± 0.5 °C”. The DC50 is on record as 1.46 ± 5.88E-03 μM in assay [3] and 1.26 ± 7.22E-03 μM in assay [4].
